One test relates to epithelial cells. To be noted: ref Matsubayashi et al., 2004; cited from earlier work.
The test system of test [1] is actin-cofilin interaction in fibroblasts. The following applies: ref Shoji et al., 2012; cited from earlier work.
Test [2] relates to cofilin-1 in epithelial cells. To be noted: micromolar concentrations, ref Zhang et al., 2018; cited from earlier work. The procedure: (Figures 11, 12) CCK-8 stimulates pancreatic growth in addition to being a physiological regulator of pancreatic enzyme secretion ([Jensen, 1994]; [Dufresne et al., 2006]) The activation of p44/42 MAPK by CCK-8 is an important signaling step in mediating its growth effects ([Dufresne et al., 2006]). Therefore, to study the possible role of cofilin in the activation of p44/42 MAPK in pancreatic acini, we examined the effect on cofilin activation of preincubation with two cofilin inhibitors (Cytochalasin D, Paclitaxel). (Figure 11) ([Shoji et al., 2012]; [Zhang et al., 2018]). The concentrations ...

Test [3] relates to cofilin / PP1 association. The test can be described thus: co-immunoprecipitation of cofilin with PP1 in pancreatic acini. It counts as cell-based, rat. To be noted: CCK-8 100 nM, 3 min. As for the experimental part:
For co-immunoprecipitation, 600 μg of protein was incubated with 15 μL of the anti-cofilin antibody (Santa Cruz Biotechnology, Inc. Dallas, TX) and 25 μL of protein A/G agarose beads (Thermo-Fisher Scientific. Waltham, MA) overnight at 4°C under agitation. Samples were washed three times with lysis buffer, re-suspended in 12.5 μL of Sample Buffer, Laemlii 2x concentrate and boiled for 5 min before western blotting.
FIGURE 6 Effect of CCK-8 (100 nM) to alter co-immunoprecipitation of cofilin with total PP2A (A) or PP1 (B). Isolated pancreatic acini were incubated in the absence or presence of CCK-8 (100 nM) for 3 min and then lysed. Equal amounts of protein were co-immunoprecipitated with an anti-cofilin (Santa Cruz, SC-376476) and then subjected to Western blots using anti-PP2A and anti-PP1. Bands were visualized using chemiluminescence and quantified by densitometry. Top: Results of a representative blot of four independent experiments are shown. Bottom: Means ± S.E. of at least 4 independent experiments. Results are expressed as % of basal stimulation of the control group. N.S., No significant. […] Lysates were analyzed using cofilin (pS3), Total cofilin, PP2A (pY307), Total PP2A, PP1(pT320), Total PP1 and tubulin. […]

For test [4], the system named is cofilin (pS3) in CCK1-R/Panc-1 cells. In words: cofilin activation (pS3 cofilin Western blot) in CCK1-R/Panc-1 cells. The following applies: CCK-8 0.3 and 100 nM, 5 min. It counts as cell-based, human. As for the experimental part:
CCK1 receptor transfected Panc-1 (CCK1-R/Panc-1) cells ([Berna et al., 2009]) and AR42J cells, were cultured in DMEM supplemented with 10% FBS and 1% penicillin/streptomycin and in RPMI supplemented with 10% FBS and 1% penicillin/streptomycin, respectively; and split 1:10 weekly with trypsin/EDTA, after washing in PBS. Finally, cells were seeded in 6-well plate and serum starved overnight, until they were 80% confluent. Cells were incubated at 37°C in 5% CO2/95% air. AR42J cells were treated with 100 nM dexamethasone for 72°h, which stimulates their differentiation into exocrine cells ([Logsdon, 1986]).
Pancreatic acini preparations were obtained by collagenase digestion as previously described ([Bissonnette et al., 1984]; [Sato et al., 1989]; [Ramos-Alvarez and Jensen, 2018]). […] Isolated acini and CCK1-R/Panc-1 cells (M&M 2.2.1) were also preincubated with two SSH1 inhibitors, D3 (25 μM, 1 h) ([Li et al., 2015]) or SE (50 μM, 3 h for acini; 24 h for CCK1-R/Panc-1 cells) ([Lee et al., 2017]). […] After sonication, lysates were centrifuged at 10,000×g for 15 min at 4°C and protein concentration was measured using the Bio-Rad protein assay reagent. […]
Western blotting and immunoprecipitation were performed as described previously ([Ramos-Alvarez and Jensen, 2018]). […] The intensity of the protein bands was measured using GeneTools software from Syngene, which were assessed in the linear detection range. […]
FIGURE 3 Effect of two SSH1 inhibitors, D3 and SE (A–C), or SSH1 siRNA (D), on the ability of CCK-8 (0.3 and 100 nM) to activate LIMK and cofilin in pancreatic acini (A/B) and activate cofilin in CCK1-R/Panc-1 cells (C/D). […] Western blots were analyzed using anti-pS3 cofilin and anti-pT508 […], and the knockdown effect of SSH1 was confirmed by Western blots using SSH1 (C-term) antibody. Bands were visualized using chemiluminescence and quantified by densitometry. […] Results are expressed as % of basal stimulation of the control group. *, p < 0.05 compared to the control group; ∞, p < 0.05 compared to stimulants without inhibitors. […]

Here are results for three compounds from publication PMC10149936, “Cofilin activation in pancreatic acinar cells plays a pivotal convergent role for mediating CCK-stimulated enzyme secretion and growth” (Frontiers in Physiology, 2023).

As for `C=C1[C@@H](C)[C@H]2[C@H](Cc3ccccc3)NC(=O)[C@]23[C@H](OC(C)=O)/C=C/[C@@](C)(O)C(=O)[C@@H](C)C/C=C/[C@H]3[C@@H]1O` [Cytochalasin D], the “effect on cell migration” value in the test with epithelial cells is reported as “completely blocked cell migration”. Moreover, the “effect on interaction between actin and cofilin” value in test [1] was “inhibits the interaction between actin and cofilin”.

With `CC(=O)O[C@H]1C(=O)[C@@]2(C)[C@H]([C@H](OC(=O)c3ccccc3)[C@]3(O)C[C@H](OC(=O)[C@H](O)[C@@H](NC(=O)c4ccccc4)c4ccccc4)C(C)=C1C3(C)C)[C@]1(OC(C)=O)CO[C@@H]1C[C@@H]2O` [Paclitaxel], in test [2], the “effect on cofilin-1 expression levels” value is reported as “significantly suppressed cofilin-1 expression levels”.

For “COOH-terminal octapeptide of cholecystokinin [CCK-8]”, the “effect on PP1 co-immunoprecipitation with cofilin” value in test [3] is listed as “had no effect”. In test [4], the “effect on cofilin phosphorylation in CCK1-R/Panc-1 cells” value is listed as “caused rapidly dephosphorylation of cofilin”.
